Results on five molecules are retold here after patent US20200270309A1, “MALEIMIDE GROUP-MODIFIED ANGIOGENESIS INHIBITOR HM-1 AND USE THEREOF” (NANJING ANJI BIOLOGICAL TECHNOLOGY CO., LTD, priority 2017, published 2020).

Marks after values point to notes of the source that are not given here. Peptide text beside a SMILES is read from it. * marks the point of attachment. X58 = O=C1C=CC(=O)N1c1cccc(CCCCCCCCCCCC(=O)*)c1; X64 = O=C1C=CC(=O)N1c1cccc(CCCCCCCCCC(=O)*)c1; X72 = O=C1C=CC(=O)N1c1ccccc1CCCCCCCCCCC(=O)*; X66 = O=C1C=CC(=O)N1c1cccc(CCCCCCCC(=O)*)c1; X75 = O=C1C=CC(=O)N1c1cccc(CC(=O)*)c1

Experiment [1] relates to retinal vascular endothelial nuclei. The experiment can be described thus: Neovascularization in a rat model of premature retinopathy. Type of experiment: in vivo, rats. As to conditions: dose 0.05 μM in the vitreous chamber from day 7 of modeling for one week; counted on day 14; oxygen-induced neonatal rats. Summed up:
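Newborn rats kept 7 d in chamber alternating 80% and 10% O2 every 24 h (23 °C), then room air. Intravitreal injection of test agents on day 7, saline for model and control; eyes taken day 14, HE-stained 4 μm sections. Endothelial nuclei breaching retinal inner limiting membrane counted, averaged per section per eye (10 sections).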

Experiment [2] has as its system corneal neovascularization. The experiment is described as follows: Corneal neovascularization induced by alkali burn in BALB/c mice. The format is in vivo. The arrangement: Inhibition rate (corneal neovascularization): concentration or dose not given beside the values. The following applies: day 14 after alkali burn, vitreous injection once a day for 1 week.
Experiment [3] deals with human retinal capillary endothelial cells (HRCECs). The experiment can be described thus: MTT proliferation inhibition on HRCECs. The format is cell-based. The following applies: 48 h; for A570 nm-A630 nm: mean±SD. The essentials:
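HRCECs seeded at 3.0×10^4 cells/mL, adhered overnight, then exposed to polypeptide for 48 h at 37 °C, 5% CO2. MTT added 4 h, formazan dissolved in DMSO, absorbance 570/630 nm; PIR (%) = 1 − treated/negative control, mean±SD of three independent runs.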

In experiment [4] the test system is IL-1β production by mouse peritoneal macrophages. The experiment can be described thus: IL-1β production by mouse peritoneal macrophages (ELISA). The format is cell-based. The following applies: for Inhibition rate: IL-1β production, vs model group; for IL-1β: mouse peritoneal macrophages, 48 h, ELISA. The essentials: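 Peptides tested at three concentration levels on adherent peritoneal macrophages harvested from mice 3 days after i.p. 6% starch broth, plated at 2×10^6 cells/mL. After 48 h culture with Dex as reference, IL-1β in supernatants was quantified.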

For experiment [5], the system named is retinal neovascularization (OIR model). The experiment can be described thus: Retinal vessels in OIR mice. Type of experiment: in vivo, C57/B16 mice. As to conditions: for Area of neovascular plexus (mm^2): dose 0.05 μM in the vitreous chamber on day 13, retinal vessels evaluated on day 17; for Inhibition rate (%): dose 0.05 μM in the vitreous chamber on day 13, retinal vessels evaluated on day 17, vs negative control. Summed up: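 C57/B16 pups were held in 75% oxygen from postnatal day 7 to 12, then returned to room air. On day 13 they received intravitreal saline or compound. On day 17 perfused vessels were labelled by Texas red tomato agglutinin injected into the left ventricle (5 min circulation) and retinal vasculature assessed.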

`C[C@H](NC(=O)CNC(=O)[C@H](CCCNC(=N)N)NC(=O)CCCCCCCCCCCc1cccc(N2C(=O)C=CC2=O)c1)C(=O)N[C@@H](CC(=O)O)C(=O)N[C@@H](CCCNC(=N)N)C(=O)N[C@@H](C)C(=O)NCC(=O)NCC(=O)NCC(=O)NCC(=O)N[C@@H](CCCNC(=N)N)C(=O)NCC(=O)N[C@@H](CC(=O)O)C(=O)O` [X35] (X58-RGADRAGGGGRGD-OH): in experiment [1], the “Nuclei count (retinal vascular endothelial nuclei, average per section per eyeball)” value is 8.544 ± 3.087. In experiment [2], the “Inhibition rate (corneal neovascularization)” value stood at 44.60%. Also, the “MVD (corneal microvessel density)” value in experiment [2] is 37.25 ± 4.806. In addition, the “Inhibition rate (%)” value is given as 43.91%* in experiment [3] (dose 0.05 μM), 56.72%** in experiment [3] (dose 0.1 μM), 57.45%* in experiment [3] (dose 0.2 μM) and 52.36%** in experiment [5]. The results for the “A570 nm-A630 nm” value in experiment [3] (dose 0.05 μM), in experiment [3] (dose 0.1 μM) and in experiment [3] (dose 0.2 μM) were 0.7413 ± 0.08995, 0.5720 ± 0.01284 and 0.5624 ± 0.01279, respectively. Also, the values for the Inhibition rate in experiment [4] (dose 0.05 μM), in experiment [4] (dose 0.1 μM) and in experiment [4] (dose 0.2 μM) were 23.62%, 30.79% and 34.61%, respectively. The IL-1β came to 718.81 ± 11.53 pg/mL in experiment [4] (dose 0.05 μM), 651.42 ± 15.51 pg/mL in experiment [4] (dose 0.1 μM) and 615.43 ± 17.18 pg/mL in experiment [4] (dose 0.2 μM). In addition, in experiment [5], the “Area of neovascular plexus (mm^2)” value came out at 0.101 ± 0.005 mm^2.

Take `C[C@H](NC(=O)CNC(=O)[C@H](CCCNC(=N)N)NC(=O)Cc1cccc(N2C(=O)C=CC2=O)c1)C(=O)N[C@@H](CC(=O)O)C(=O)N[C@@H](CCCNC(=N)N)C(=O)N[C@@H](C)C(=O)NCC(=O)NCC(=O)NCC(=O)NCC(=O)N[C@@H](CCCNC(=N)N)C(=O)NCC(=O)N[C@@H](CC(=O)O)C(=O)O` [X25] (X75-RGADRAGGGGRGD-OH): the “Nuclei count (retinal vascular endothelial nuclei, average per section per eyeball)” value in experiment [1] amounted to 8.923 ± 1.954. The “Inhibition rate (corneal neovascularization)” value in experiment [2] was determined as 52.90%. In addition, in experiment [2], the “MVD (corneal microvessel density)” value is 31.67 ± 6.856. The “Inhibition rate (%)” value is given as 50.23%* in experiment [3] (dose 0.05 μM), 54.21%** in experiment [3] (dose 0.1 μM), 63.33%* in experiment [3] (dose 0.2 μM) and 54.72%** in experiment [5]. For the same molecule, the “A570 nm-A630 nm” value in experiment [3] (dose 0.05 μM) amounted to 0.6578 ± 0.08044; in experiment [3] (dose 0.1 μM), 0.6052 ± 0.09358; in experiment [3] (dose 0.2 μM), 0.4847 ± 0.06551. Further, the Inhibition rate in experiment [4] (dose 0.05 μM) is 20.57%; in experiment [4] (dose 0.1 μM) it was 24.22%; in experiment [4] (dose 0.2 μM) it was 29.89%. Besides, the IL-1β in experiment [4] (dose 0.05 μM) turned out to be 747.54 ± 18.25 pg/mL; in experiment [4] (dose 0.1 μM) it was 713.21 ± 19.17 pg/mL; in experiment [4] (dose 0.2 μM), 659.86 ± 10.24 pg/mL. Moreover, the “Area of neovascular plexus (mm^2)” value in experiment [5] worked out at 0.096 ± 0.012 mm^2.

For the molecule `C[C@H](NC(=O)CNC(=O)[C@H](CCCNC(=N)N)NC(=O)CCCCCCCCCCc1ccccc1N1C(=O)C=CC1=O)C(=O)N[C@@H](CC(=O)O)C(=O)N[C@@H](CCCNC(=N)N)C(=O)N[C@@H](C)C(=O)NCC(=O)NCC(=O)NCC(=O)NCC(=O)N[C@@H](CCCNC(=N)N)C(=O)NCC(=O)N[C@@H](CC(=O)O)C(=O)O` [X22] (X72-RGADRAGGGGRGD-OH), the “Nuclei count (retinal vascular endothelial nuclei, average per section per eyeball)” value in experiment [1] was 7.368 ± 1.842. Moreover, in experiment [2], the “Inhibition rate (corneal neovascularization)” value came out at 46.70%. For the same molecule, in experiment [2], the “MVD (corneal microvessel density)” value stood at 35.84 ± 6.594. In addition, the “Inhibition rate (%)” value in experiment [3] (dose 0.05 μM) was determined as 49.30%*; in experiment [3] (dose 0.1 μM), 64.15%**; in experiment [3] (dose 0.2 μM) it was 66.52%*; in experiment [5], 61.32%**. In addition, the entries for the “A570 nm-A630 nm” value in experiment [3] (dose 0.05 μM), in experiment [3] (dose 0.1 μM) and in experiment [3] (dose 0.2 μM) were 0.6701 ± 0.07545, 0.4738 ± 0.00344 and 0.4425 ± 0.04816, respectively. Further, the Inhibition rate in experiment [4] (dose 0.05 μM) is on record as 29.53%; in experiment [4] (dose 0.1 μM), 32.31%; in experiment [4] (dose 0.2 μM), 38.53%. The IL-1β in experiment [4] (dose 0.05 μM) was determined as 663.21 ± 13.73 pg/mL; in experiment [4] (dose 0.1 μM), 637.07 ± 19.81 pg/mL; in experiment [4] (dose 0.2 μM), 578.51 ± 14.03 pg/mL. For the same molecule, the “Area of neovascular plexus (mm^2)” value in experiment [5] was determined as 0.082 ± 0.005 mm^2.

Turning to `C[C@H](NC(=O)CNC(=O)[C@H](CCCNC(=N)N)NC(=O)CCCCCCCCCc1cccc(N2C(=O)C=CC2=O)c1)C(=O)N[C@@H](CC(=O)O)C(=O)N[C@@H](CCCNC(=N)N)C(=O)N[C@@H](C)C(=O)NCC(=O)NCC(=O)NCC(=O)NCC(=O)N[C@@H](CCCNC(=N)N)C(=O)NCC(=O)N[C@@H](CC(=O)O)C(=O)O` [X33] (X64-RGADRAGGGGRGD-OH), the “Nuclei count (retinal vascular endothelial nuclei, average per section per eyeball)” value in experiment [1] was 7.654 ± 1.142. In experiment [2], the “Inhibition rate (corneal neovascularization)” value turned out to be 47.20%. Moreover, in experiment [2], the “MVD (corneal microvessel density)” value turned out to be 35.50 ± 3.223. Further, the “Inhibition rate (%)” value in experiment [3] (dose 0.05 μM) was found to be 42.66%*; in experiment [3] (dose 0.1 μM), 46.86%**; in experiment [3] (dose 0.2 μM) it was 62.24%*; in experiment [5] it was 58.02%**. In addition, the “A570 nm-A630 nm” value in experiment [3] (dose 0.05 μM) was 0.7579 ± 0.03744; in experiment [3] (dose 0.1 μM), 0.7024 ± 0.04477; in experiment [3] (dose 0.2 μM), 0.4991 ± 0.04854. The results for the Inhibition rate in experiment [4] (dose 0.05 μM), in experiment [4] (dose 0.1 μM) and in experiment [4] (dose 0.2 μM) were 25.68%, 34.80% and 36.96%, respectively. For the same molecule, the results for the IL-1β in experiment [4] (dose 0.05 μM), in experiment [4] (dose 0.1 μM) and in experiment [4] (dose 0.2 μM) were 699.41 ± 11.17 pg/mL, 613.62 ± 19.23 pg/mL and 593.32 ± 11.64 pg/mL, respectively. Further, in experiment [5], the “Area of neovascular plexus (mm^2)” value is given as 0.089 ± 0.029 mm^2.

For `C[C@H](NC(=O)CNC(=O)[C@H](CCCNC(=N)N)NC(=O)CCCCCCCc1cccc(N2C(=O)C=CC2=O)c1)C(=O)N[C@@H](CC(=O)O)C(=O)N[C@@H](CCCNC(=N)N)C(=O)N[C@@H](C)C(=O)NCC(=O)NCC(=O)NCC(=O)NCC(=O)N[C@@H](CCCNC(=N)N)C(=O)NCC(=O)N[C@@H](CC(=O)O)C(=O)O` [X31] (X66-RGADRAGGGGRGD-OH), in experiment [1], the “Nuclei count (retinal vascular endothelial nuclei, average per section per eyeball)” value turned out to be 7.228 ± 3.184. Further, in experiment [2], the “Inhibition rate (corneal neovascularization)” value is listed as 45.42%. In addition, in experiment [2], the “MVD (corneal microvessel density)” value is given as 36.70 ± 5.505. The “Inhibition rate (%)” value in experiment [3] (dose 0.05 μM) was determined as 41.92%*; in experiment [3] (dose 0.1 μM) it was 45.65%**; in experiment [3] (dose 0.2 μM), 63.50%*; in experiment [5], 52.83%**. For the same molecule, the “A570 nm-A630 nm” value in experiment [3] (dose 0.05 μM) amounted to 0.7676 ± 0.04187; in experiment [3] (dose 0.1 μM), 0.7183 ± 0.03361; in experiment [3] (dose 0.2 μM), 0.4824 ± 0.04754. Further, the figures for the Inhibition rate in experiment [4] (dose 0.05 μM), in experiment [4] (dose 0.1 μM) and in experiment [4] (dose 0.2 μM) were 15.28%, 18.74% and 23.12%, respectively. The IL-1β in experiment [4] (dose 0.05 μM) came out at 797.34 ± 10.46 pg/mL; in experiment [4] (dose 0.1 μM), 764.81 ± 19.08 pg/mL; in experiment [4] (dose 0.2 μM), 723.57 ± 18.58 pg/mL. For the same molecule, the “Area of neovascular plexus (mm^2)” value in experiment [5] was 0.101 ± 0.013 mm^2.
